In PubChem BioAssay AID1963869 (Molecular Pharmacology Branch, DTP, NCI, 2024):

Test system: KRAS patient-derived spheroids with HUVEC/MSC, viability
Assay: Anticancer human tumor 323965-272-R-J2-PDC patient-derived pancreatic carcinoma cell line growth inhibition [KRAS2]
Conditions: for IC50: curve of first compound; for viability, T/C: stronger effect = lower value; active = viability on the fitted dose curve at most 10% of control; inactive = the rest
Outline: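 Combination screen of spheroid viability in tumor-cell co-cultures with endothelial (HUVEC) and mesenchymal stem cell stroma. Each agent was tested in half-log dilutions, topping at clinical Cmax or at 10 microM without a known Cmax.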

[1] = second compound 0.1 µM, first compound 0.0316 µM
[2] = second compound 0.316 µM, first compound 0.0316 µM
[3] = second compound 1 µM, first compound 0.0316 µM
[4] = second compound 3.16 µM, first compound 0.0316 µM
[5] = second compound 10 µM, first compound 0.0316 µM
[6] = second compound 0.1 µM, first compound 0.1 µM
[7] = second compound 0.1 µM, first compound 0.316 µM
[8] = second compound 0.1 µM, first compound 1 µM
[9] = second compound 0.1 µM, first compound 3.16 µM
[10] = second compound 0.1 µM, first compound 10 µM
[11] = second compound 0.316 µM, first compound 0.1 µM
[12] = second compound 0.316 µM, first compound 0.316 µM
[13] = second compound 0.316 µM, first compound 1 µM
[14] = second compound 0.316 µM, first compound 3.16 µM
[15] = second compound 0.316 µM, first compound 10 µM
[16] = second compound 1 µM, first compound 0.1 µM
[17] = second compound 1 µM, first compound 0.316 µM
[18] = second compound 1 µM, first compound 1 µM
[19] = second compound 1 µM, first compound 3.16 µM
[20] = second compound 1 µM, first compound 10 µM
[21] = second compound 3.16 µM, first compound 0.1 µM
[22] = second compound 3.16 µM, first compound 0.316 µM
[23] = second compound 3.16 µM, first compound 1 µM
[24] = second compound 3.16 µM, first compound 3.16 µM
[25] = second compound 3.16 µM, first compound 10 µM
[26] = second compound 10 µM, first compound 0.1 µM
[27] = second compound 10 µM, first compound 0.316 µM
[28] = second compound 10 µM, first compound 1 µM
[29] = second compound 10 µM, first compound 3.16 µM
[30] = second compound 10 µM, first compound 10 µM
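Note: spheroids exposed to agents for 7 days.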
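Throughout, for viability, T/C: 100% = DMSO vehicle control viability.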

CC(=O)Nc1cccc(-n2c(=O)n(C3CC3)c(=O)c3c(Nc4ccc(I)cc4F)n(C)c(=O)c(C)c32)c1 + COc1cc2nc(C)nc(NC(C)c3cc(N)cc(C(F)(F)F)c3)c2cc1OC1CCOC1
1.6 nM: IC50 (second compound 0.1 µM)
0.703 nM: IC50 (second compound 3.16 µM)
1.09 nM: IC50 (second compound 10 µM)
0.713 nM: IC50 (second compound 1 µM)
inactive: viability, T/C (second compound 0.1 µM, first compound 0.0001 µM) 84.1% | viability, T/C (second compound 0.1 µM, first compound 0.000316 µM) 67.3% | viability, T/C (second compound 0.1 µM, first compound 0.001 µM) 54.5% | viability, T/C (second compound 0.1 µM, first compound 0.00316 µM) 43.7% | viability, T/C (second compound 0.1 µM, first compound 0.01 µM) 32.6% | viability, T/C [1] 23.7% | viability, T/C (second compound 0.316 µM, first compound 0.0001 µM) 67.8% | viability, T/C (second compound 0.316 µM, first compound 0.000316 µM) 59.6% | viability, T/C (second compound 0.316 µM, first compound 0.001 µM) 48.9% | viability, T/C (second compound 0.316 µM, first compound 0.00316 µM) 39.6% | viability, T/C (second compound 0.316 µM, first compound 0.01 µM) 31.9% | viability, T/C [2] 22% | viability, T/C (second compound 1 µM, first compound 0.0001 µM) 73.5% | viability, T/C (second compound 1 µM, first compound 0.000316 µM) 60.4% | viability, T/C (second compound 1 µM, first compound 0.001 µM) 43.5% | viability, T/C (second compound 1 µM, first compound 0.00316 µM) 37.4% | viability, T/C (second compound 1 µM, first compound 0.01 µM) 28.5% | viability, T/C [3] 20.8% | viability, T/C (second compound 3.16 µM, first compound 0.0001 µM) 73% | viability, T/C (second compound 3.16 µM, first compound 0.000316 µM) 57.9% | viability, T/C (second compound 3.16 µM, first compound 0.001 µM) 44.6% | viability, T/C (second compound 3.16 µM, first compound 0.00316 µM) 36.3% | viability, T/C (second compound 3.16 µM, first compound 0.01 µM) 28.7% | viability, T/C [4] 18.4% | viability, T/C (second compound 10 µM, first compound 0.0001 µM) 80.7% | viability, T/C (second compound 10 µM, first compound 0.000316 µM) 68.2% | viability, T/C (second compound 10 µM, first compound 0.001 µM) 49.2% | viability, T/C (second compound 10 µM, first compound 0.00316 µM) 36.3% | viability, T/C (second compound 10 µM, first compound 0.01 µM) 26.1% | viability, T/C [5] 12.7%
0.949 nM: IC50 (second compound 0.316 µM)

COC(=O)c1ccc2c(C(=Nc3ccc(N(C)C(=O)CN4CCN(C)CC4)cc3)c3ccccc3)c(O)[nH]c2c1 + COc1cc2nc(C)nc(NC(C)c3cc(N)cc(C(F)(F)F)c3)c2cc1OC1CCOC1
inactive: viability, T/C [1] 92.9% | viability, T/C [6] 102% | viability, T/C [7] 102% | viability, T/C [8] 106% | viability, T/C [9] 92.6% | viability, T/C [10] 86% | viability, T/C [2] 89.3% | viability, T/C [11] 81% | viability, T/C [12] 84.1% | viability, T/C [13] 78.8% | viability, T/C [14] 78.1% | viability, T/C [15] 74.6% | viability, T/C [3] 82.6% | viability, T/C [16] 73.2% | viability, T/C [17] 76.8% | viability, T/C [18] 74.6% | viability, T/C [19] 70.8% | viability, T/C [20] 68.9% | viability, T/C [4] 77.3% | viability, T/C [21] 77.6% | viability, T/C [22] 75.6% | viability, T/C [23] 81.5% | viability, T/C [24] 79.3% | viability, T/C [25] 75.7% | viability, T/C [5] 90.8% | viability, T/C [26] 86% | viability, T/C [27] 77.4% | viability, T/C [28] 72.8% | viability, T/C [29] 77.8% | viability, T/C [30] 69.7%
> 10000 nM: IC50 (second compound 0.1 µM) | IC50 (second compound 0.316 µM) | IC50 (second compound 1 µM) | IC50 (second compound 3.16 µM) | IC50 (second compound 10 µM)

COc1cc(Nc2ncc3c(n2)-c2ccc(Cl)cc2C(c2c(F)cccc2OC)=NC3)ccc1C(=O)O + COc1cc2nc(C)nc(NC(C)c3cc(N)cc(C(F)(F)F)c3)c2cc1OC1CCOC1
< 31.6 nM: IC50 (second compound 1 µM) | IC50 (second compound 3.16 µM) | IC50 (second compound 10 µM)
92.4 nM: IC50 (second compound 0.1 µM)
inactive: viability, T/C [1] 76.5% | viability, T/C [6] 47.3% | viability, T/C [7] 35.6% | viability, T/C [8] 44.1% | viability, T/C [9] 53.4% | viability, T/C [10] 59.1% | viability, T/C [2] 66.2% | viability, T/C [11] 45.3% | viability, T/C [12] 35.7% | viability, T/C [13] 37.5% | viability, T/C [14] 51.5% | viability, T/C [15] 58.5% | viability, T/C [3] 62.2% | viability, T/C [16] 39.6% | viability, T/C [17] 33% | viability, T/C [18] 38.8% | viability, T/C [19] 44.9% | viability, T/C [20] 51.2% | viability, T/C [4] 56.8% | viability, T/C [21] 34.4% | viability, T/C [22] 28.4% | viability, T/C [23] 37.8% | viability, T/C [24] 44.3% | viability, T/C [25] 51.1% | viability, T/C [5] 63.4% | viability, T/C [26] 20.3% | viability, T/C [27] 24% | viability, T/C [28] 41.6% | viability, T/C [29] 42.8% | viability, T/C [30] 36.9%
73.5 nM: IC50 (second compound 0.316 µM)

COc1cc2nccc(Oc3ccc(NC(=O)C4(C(=O)Nc5ccc(F)cc5)CC4)cc3)c2cc1OC + COc1cc2nc(C)nc(NC(C)c3cc(N)cc(C(F)(F)F)c3)c2cc1OC1CCOC1
active: viability, T/C [30] 7.87%
3890 nM: IC50 (second compound 10 µM)
inactive: viability, T/C [1] 86.5% | viability, T/C [6] 86.5% | viability, T/C [7] 84.1% | viability, T/C [8] 86.5% | viability, T/C [9] 75.7% | viability, T/C [10] 86.2% | viability, T/C [2] 76% | viability, T/C [11] 85.7% | viability, T/C [12] 88% | viability, T/C [13] 82.2% | viability, T/C [14] 84.7% | viability, T/C [15] 75.2% | viability, T/C [3] 84.4% | viability, T/C [16] 79.8% | viability, T/C [17] 84.5% | viability, T/C [18] 82.8% | viability, T/C [19] 74.1% | viability, T/C [20] 66.3% | viability, T/C [4] 87.1% | viability, T/C [21] 85.3% | viability, T/C [22] 95.3% | viability, T/C [23] 89.6% | viability, T/C [24] 79% | viability, T/C [25] 49.5% | viability, T/C [5] 85.4% | viability, T/C [26] 93.6% | viability, T/C [27] 84.9% | viability, T/C [28] 84.3% | viability, T/C [29] 59.1%
> 10000 nM: IC50 (second compound 0.1 µM) | IC50 (second compound 0.316 µM) | IC50 (second compound 1 µM)
9980 nM: IC50 (second compound 3.16 µM)
